Experimental data from the supplement of paper PMC10307832.

Columns and labels:
Test in all cases: relative viability (nuclei count vs DMSO), 5 days (fraction); higher = more cells survive
[1] = compound: CN1C=C(C2=CC=CC=C21)/C=C\3/C4=C(C=CC=N4)NC3=O + CS(=O)(=O)CCNCc1ccc(-c2ccc3ncnc(Nc4ccc(OCc5cccc(F)c5)c(Cl)c4)c3c2)o1 [Lapatinib] (partner 2 µM)
Method in brief: (§1)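 Relative viability divides the nuclei count in treated wells by that in vehicle wells. Lung cancer cell lines were seeded in 1536-well plates, dosed by pin tool the next day, and fixed and stained after 5 days in one step with final 0.05% Triton X-100, 1% formaldehyde and 1 ug/ml Hoechst. Dosing was a single drug or a fixed anchor-drug dose plus five library-drug doses (not always all listed) in √10 steps, and values are medians of duplicate plates imaged at 4×.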

[2] = compound: CC(=O)Nc1cccc(-n2c(=O)n(C3CC3)c(=O)c3c(Nc4ccc(I)cc4F)n(C)c(=O)c(C)c32)c1 [Trametinib] + Nc1ncn([C@H]2C[C@H](O)[C@@H](CO)O2)c(=O)n1 [Decitabine] (partner 2 µM)
Method in brief: as §1

[3] = compound: CC(=O)Nc1cccc(-n2c(=O)n(C3CC3)c(=O)c3c(Nc4ccc(I)cc4F)n(C)c(=O)c(C)c32)c1 [Trametinib] + COc1cc2c(Oc3ccc(NC(=O)C4(C(=O)Nc5ccc(F)cc5)CC4)cc3F)ccnc2cc1OCCCN1CCOCC1 [Foretinib] (partner 0.25 µM)
Method in brief: as §1

Cell Line | relative viability ([1]; first compound 0.02 µM) | relative viability ([1]; first compound 0.06325 µM) | relative viability ([1]; first compound 0.2 µM) | relative viability ([1]; first compound 0.6325 µM) | relative viability ([1]; first compound 2 µM) | relative viability ([2]; first compound 0.0025 µM) | relative viability ([2]; first compound 0.007906 µM) | relative viability ([2]; first compound 0.025 µM) | relative viability ([2]; first compound 0.07906 µM) | relative viability ([2]; first compound 0.25 µM) | relative viability ([3]; first compound 0.0025 µM) | relative viability ([3]; first compound 0.007906 µM) | relative viability ([3]; first compound 0.025 µM) | relative viability ([3]; first compound 0.07906 µM) | relative viability ([3]; first compound 0.25 µM)
NCI-H838 | 0.774 | 0.9 | 0.813 | 0.785 | 0.896 | 0.466 | 0.416 | 0.457 | 0.448 | 0.403 | 0.921 | 0.889 | 0.795 | 0.797 | 0.638
NCI-H1355 | 0.952 | 0.784 | 0.7 | 0.637 | 0.646 | 0.346 | 0.353 | 0.309 | 0.347 | 0.34 | 0.993 | 0.725 | 0.519 | 0.606 | 0.488
NCI-H1395 | 0.878 | 1.01 |  | 0.948 | 0.885 | 0.705 | 0.597 | 0.736 | 0.693 | 0.555 | 0.993 | 0.914 | 0.852 | 0.919 | 0.708
NCI-H1437 | 0.837 | 0.842 | 0.708 | 0.841 | 0.938 | 0.574 | 0.471 | 0.557 | 0.394 | 0.431 | 1.24 | 1.06 | 0.754 | 0.664 | 0.588
NCI-H1650 | 0.854 | 0.793 | 0.574 | 0.768 | 0.842 | 0.39 | 0.467 | 0.369 | 0.399 | 0.206 | 1.18 | 0.857 | 0.894 | 0.838 | 0.506
NCI-H1651 | 1.02 | 1.09 | 0.761 | 0.836 | 1.09 | 0.559 | 0.689 | 0.48 | 0.422 | 0.333 | 0.773 | 0.687 | 0.702 | 0.652 | 0.671
NCI-H1666 | 0.781 | 0.606 | 0.512 | 0.599 | 0.532 | 0.742 | 0.684 | 0.622 | 0.602 | 0.5 | 0.892 | 0.758 | 0.709 | 0.685 | 0.59
NCI-H1734 | 1.01 | 1.01 |  | 1.02 | 1.08 | 0.508 | 0.438 |  | 0.426 | 0.453 | 0.968 | 0.781 | 0.582 | 0.607 | 0.446
NCI-H1755 | 0.966 | 0.918 | 0.903 | 0.959 | 0.958 | 0.72 | 0.703 | 0.679 | 0.678 | 0.594 | 0.856 | 0.863 | 0.82 | 0.809 | 0.787
NCI-H1793 | 0.912 | 0.787 | 0.646 | 0.448 | 0.799 | 0.458 | 0.4 | 0.447 | 0.334 | 0.228 | 0.661 | 0.349 | 0.393 | 0.256 | 0.237
NCI-H1915 | 0.921 | 0.98 | 0.898 | 1.09 | 1.05 | 0.268 | 0.248 | 0.24 | 0.227 | 0.188 | 1.11 | 0.781 | 0.538 | 0.596 | 0.298
NCI-H1944 | 0.719 | 0.743 |  | 0.759 | 0.727 | 0.446 | 0.379 | 0.403 | 0.386 | 0.294 | 0.811 | 0.634 | 0.572 | 0.461 | 0.341
NCI-H1975 | 0.839 | 0.929 | 0.775 | 0.903 | 0.77 | 0.332 | 0.336 | 0.345 | 0.261 | 0.278 | 0.973 | 0.87 | 0.839 | 0.334 | 0.385
NCI-H1993 | 0.694 | 0.497 | 0.83 | 0.788 | 0.909 | 0.556 | 0.567 | 0.582 | 0.57 | 0.524 | 0.657 | 0.616 | 0.678 | 0.663 | 0.661
NCI-H2009 | 0.996 | 0.965 | 1.02 | 0.947 | 0.898 | 0.306 | 0.303 | 0.247 | 0.273 | 0.267 | 1.05 | 0.708 | 0.351 | 0.279 | 0.302
NCI-H2023 | 0.709 | 0.739 | 0.222 | 0.652 | 0.684 | 0.211 | 0.187 | 0.237 | 0.207 | 0.154 | 0.795 | 0.472 | 0.497 | 0.35 | 0.302
NCI-H2085 | 0.746 | 0.654 | 0.596 | 0.605 | 0.813 | 0.544 | 0.558 | 0.552 | 0.629 | 0.61 | 0.695 | 0.732 | 0.625 | 0.587 | 0.626
NCI-H2087 | 1.28 | 0.757 | 0.968 | 0.949 | 1.07 | 0.207 | 0.203 | 0.148 | 0.117 | 0.125 | 0.803 | 0.488 | 0.343 | 0.211 | 0.205
NCI-H2126 | 0.678 | 0.796 | 0.671 | 0.748 | 0.674 | 0.574 | 0.558 | 0.514 | 0.535 | 0.523 | 1.01 | 1.05 | 0.994 | 1 | 0.816
NCI-H2170 |  | 0.253 | 0.233 | 0.264 | 0.284 | 0.491 | 0.451 |  | 0.435 | 0.425 | 0.973 | 0.539 | 0.968 | 0.963 | 0.87
NCI-H2347 | 0.953 | 1.02 | 0.876 | 0.793 | 0.881 | 0.521 | 0.514 | 0.395 | 0.358 | 0.397 | 1.08 | 0.43 | 0.31 | 0.46 | 0.387
NCI-H2405 | 1.03 | 1.02 | 0.749 | 1.06 | 1.03 | 0.777 | 0.66 | 0.586 |  | 0.544 | 1.08 | 0.874 | 0.903 | 0.72 | 0.563
NCI-H3122 | 0.928 | 0.934 | 0.952 | 1.06 | 1.02 | 0.416 | 0.383 | 0.315 | 0.279 | 0.268 | 0.895 | 0.769 | 0.293 | 0.251 | 0.159
PC-3 [JPC-3] | 0.405 | 0.425 | 0.441 | 0.376 | 0.447 | 0.807 | 0.724 | 0.757 |  | 0.632 | 1 | 0.969 | 0.87 | 0.709 | 0.574
PC-14 | 0.262 | 0.289 | 0.256 | 0.275 | 0.315 | 0.229 | 0.184 | 0.286 | 0.145 | 0.125 | 0.911 | 0.823 | 0.809 | 0.885 | 0.693
RERF-LC-KJ | 0.984 | 0.813 | 0.821 | 0.7 | 0.752 | 0.683 | 0.68 | 0.609 | 0.695 | 0.475 | 0.948 | 0.851 | 0.699 | 0.827 | 0.778
SK-LU-1 | 0.662 | 0.788 | 0.854 | 0.886 | 1.2 | 0.585 | 0.632 | 0.473 | 0.431 | 0.455 | 0.649 | 0.697 | 0.505 | 0.406 | 0.208
SK-MES-1 | 0.451 | 0.427 | 0.447 | 0.454 | 0.428 | 0.381 | 0.304 | 0.341 | 0.247 | 0.273 | 0.913 | 0.476 | 0.638 | 0.566 | 0.347
SW 1573 | 1.17 | 0.905 | 0.921 | 1.07 | 1.18 | 0.393 | 0.37 | 0.317 | 0.308 | 0.181 | 0.876 | 0.723 | 0.616 | 0.513 | 0.152
